Measurements from US11098083B2, “Peptide that regulates fat metabolism and method for regulating fat metabolism” (SHENZHEN INSTITUTES OF ADVANCED TECHNOLOGY, priority 2017, dated 2021).
Ends that are not written are not given here.

Tests used:
Type in all cases: in vivo, C57BL/6 mice
DIO-NAFLD mice [1] = assay: i.p. injection of ISAP1 in DIO-NAFLD mice: epididymal fat pad
Text: S110: a diet-induced obesity and nonalcoholic fatty liver disease (DIO-NAFLD) mouse model by HFD feeding may be established.
Thirty specific pathogen free (SPF) level healthy 6-week-old male C57BL/6 mice may be purchased from the Experimental Animal Center of Guangdong Province. A body mass of each mouse may be 18 g to 22 g. The mice may be divided into two groups, housed in a SPF-grade animal facility of SIAT. Six mice may be fed with ND (the ND contains 5% of fat; 53% of carbohydrate; 23% of protein, having total calories of […]) for 12 weeks to be a ND control group, and may be allowed to have food and water ad lib. The other mice may be fed with HFD (the HFD may be D12451, Research Diets, Inc.) for 12 weeks, and may be allowed to have food and water ad lib. Physiological indexes of the mice may be detected. […] In the present embodiment, an average body weight of the DIO-NAFLD mice may be more than 40 g. Comparison of average body weight of the mice of the established model with that of the mice in the ND control group is shown in FIG. 1. The arrow indicates a time point at which the HFD be started.
S121: effect of i.p. injection of ISAP1 on epididymal fat pad may be studied.
When the body weight of the each mouse fed with the HFD is more than 40 g, and when the blood glucose level of the each mouse is above 10 mMol, each DIO-NAFLD mouse may be treated with i.p. injection of ISAP1 for 6 consecutive weeks. The DIO-NAFLD mice may be divided into 4 groups, 6 mice in each group. ISAP1 may be dissolved in normal saline solution containing 0.01% of BSA. A dosage of 20 pmol/g of ISAP1 may be i.p. injected into each DIO-NAFLD mouse in group #1 once a day, and a dosage of 2 pmol/g of ISAP1 may be i.p. injected into each DIO-NAFLD mouse in group #2 once a day. OCN (mouse OCN protein) may be prepared and administered similarly as the ISAP1 at a dosage of 6 pmol/g to each mouse in group #3. The mice in group #4 may be treated with normal saline only as a HFD control group. After 6 weeks, the mice may be euthanized by application of 95% CO2, and epididymal fat pads of 4 mice selected from each group and an epididymal fat pad of a mouse from the ND control group may collected and weighed. Paraffin slices of each epididymal fat pad may be prepared, and an area of the adipocytes may be observed by microscopy.
Statistical analysis may be performed to compare with the HFD control group, wherein *: P<0.05, **: P<0.01, and ***: P<0.001.

DIO-NAFLD mice [2] = assay: i.p. injection of ISAP1 in DIO-NAFLD mice: liver fat (appearance, oil red O staining); settings: daily i.p. injection 6 weeks
Text: S122: effect of i.p. injection of ISAP1 on the liver may be studied.
In S121, livers may be collected while collecting the adipose tissues, and appearance of the livers may be photographed. A part of liver tissues may be taken for frozen sectioning, stained with oil red O for microscopic observation, and then a same area may be quantitatively analyzed. […] The […] the color is, the higher the fat content is contained.

DIO-NAFLD mice [3] = assay: i.p. injection of ISAP1 in DIO-NAFLD mice: liver functions and blood lipids; settings: daily i.p. 6 weeks, even at 2 pmol/g, compared with HFD control group, FIG. 4
Text: S123: the effect of i.p. injection of ISAP1 on liver functions and blood lipids in mice may be studied.
In S121, before sacrificing the mice, blood of each mouse may be collected from a tail vein and detected for a level of alanine aminotransferases (ALT), a level of alkaline phosphatases (ALP), a level of aspartate aminotransferases (AST), a serum level of cholesterols, a level of low-density lipoprotein (LDL), and a level of high-density lipoprotein (HDL) using a Roche […] (model cobas 8000) as per manufacturer's instructions.

Sequence: YLGASVPSPDPLEPT [ISAP1]
- size of the epididymal fat pads (DIO-NAFLD mice [1]; daily i.p. injection 6 weeks (20 or 2 pmol/g), compared with HFD control group, FIG. 2A): significantly reduce the size
- weight (average mass) of the epididymal fat pad (DIO-NAFLD mice [1]; daily i.p. injection 6 weeks (20 or 2 pmol/g), compared with HFD control group, FIG. 2B): significantly reduce the weight
- sizes of adipocytes, H&E staining of epididymal fat pads (DIO-NAFLD mice [1]; daily i.p. injection 6 weeks, compared with HFD control group, FIG. 2C): significantly reduce sizes of adipocytes
- average surface areas of single adipocytes calculated from H&E stained slices (DIO-NAFLD mice [1]; daily i.p. injection 6 weeks, double-blind, FIG. 2D): significantly reduce the sizes of the adipocytes
- proportion of fat in the liver (oil red O staining) (DIO-NAFLD mice [2]; compared with HFD control group, FIG. 3C): decreased significantly
- liver fat accumulation (liver appearance) (DIO-NAFLD mice [2]; vs HFD+carrier, FIG. 3A): significantly reduce the liver fat accumulation
- level of alanine aminotransferases (ALT) in blood (DIO-NAFLD mice [3]): effective in reducing
- level of alkaline phosphatases (ALP) in blood (DIO-NAFLD mice [3]): effective in reducing
- level of aspartate aminotransferases (AST) in blood (DIO-NAFLD mice [3]): effective in reducing
- level of low-density lipoprotein (LDL) (DIO-NAFLD mice [3]): effective in reducing
- serum level of cholesterols (DIO-NAFLD mice [3]): effective in reducing
